Laboratory results taken from ChEMBL document CHEMBL4823324, “Discovery of BMS-986318, a Potent Nonbile Acid FXR Agonist for the Treatment of Nonalcoholic Steatohepatitis” (ACS Med Chem Lett, 2021).

Key:
[1] = molecular target: T1, Nuclear receptor ROR-alpha (Homo sapiens, UniProt P35398); test: Antagonist activity at human RORalpha (272 to 557 residues) co-expressed with Gal4-luciferase reporter in human Jurkat cells incubated for 18 hrs by Steady-Glo luciferase reporter based luminescence analysis; type: cell-based
T1 sequence (P35398 whole entry): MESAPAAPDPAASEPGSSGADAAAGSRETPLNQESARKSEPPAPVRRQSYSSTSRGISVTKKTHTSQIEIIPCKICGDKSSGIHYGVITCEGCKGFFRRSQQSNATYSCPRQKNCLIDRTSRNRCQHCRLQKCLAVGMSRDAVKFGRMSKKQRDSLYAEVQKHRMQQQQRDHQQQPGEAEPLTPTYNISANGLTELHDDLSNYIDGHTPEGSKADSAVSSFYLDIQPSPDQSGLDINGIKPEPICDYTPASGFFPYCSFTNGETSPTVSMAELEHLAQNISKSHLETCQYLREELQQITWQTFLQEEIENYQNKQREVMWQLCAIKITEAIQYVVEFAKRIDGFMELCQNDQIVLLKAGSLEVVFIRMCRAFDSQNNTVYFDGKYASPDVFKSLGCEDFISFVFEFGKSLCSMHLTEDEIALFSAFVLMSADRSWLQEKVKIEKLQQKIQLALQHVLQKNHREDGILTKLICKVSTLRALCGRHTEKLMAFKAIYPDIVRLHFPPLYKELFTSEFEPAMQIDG

[2] = molecular target: T2, Peroxisome proliferator-activated receptor delta (Homo sapiens, UniProt Q03181); test: Activation of PPARdelta LBD (unknown origin) co-expressed with Gal4UAS-luciferase reporter in HEK293 cells incubated for 24 hrs by Steady-Glo luciferase reporter gene based luminescence analysis; type: cell-based
T2 sequence (Q03181 whole entry): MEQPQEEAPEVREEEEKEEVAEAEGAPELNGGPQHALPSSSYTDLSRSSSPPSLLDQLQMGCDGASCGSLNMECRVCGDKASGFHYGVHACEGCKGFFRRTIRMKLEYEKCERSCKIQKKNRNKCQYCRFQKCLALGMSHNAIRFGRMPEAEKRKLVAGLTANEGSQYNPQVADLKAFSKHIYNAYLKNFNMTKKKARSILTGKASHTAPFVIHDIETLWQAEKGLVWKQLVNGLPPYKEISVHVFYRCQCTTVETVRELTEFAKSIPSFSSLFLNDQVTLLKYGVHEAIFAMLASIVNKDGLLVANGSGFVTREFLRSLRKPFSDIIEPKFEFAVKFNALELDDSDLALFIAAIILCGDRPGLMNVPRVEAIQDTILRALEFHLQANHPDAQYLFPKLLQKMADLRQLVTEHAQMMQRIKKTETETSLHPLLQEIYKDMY

Progesterone receptor = molecular target: T3, Progesterone receptor (Homo sapiens, UniProt P06401); test: Activation of progesterone receptor (unknown origin) by fluorescence polarization based competition assay
T3 sequence (P06401 whole entry): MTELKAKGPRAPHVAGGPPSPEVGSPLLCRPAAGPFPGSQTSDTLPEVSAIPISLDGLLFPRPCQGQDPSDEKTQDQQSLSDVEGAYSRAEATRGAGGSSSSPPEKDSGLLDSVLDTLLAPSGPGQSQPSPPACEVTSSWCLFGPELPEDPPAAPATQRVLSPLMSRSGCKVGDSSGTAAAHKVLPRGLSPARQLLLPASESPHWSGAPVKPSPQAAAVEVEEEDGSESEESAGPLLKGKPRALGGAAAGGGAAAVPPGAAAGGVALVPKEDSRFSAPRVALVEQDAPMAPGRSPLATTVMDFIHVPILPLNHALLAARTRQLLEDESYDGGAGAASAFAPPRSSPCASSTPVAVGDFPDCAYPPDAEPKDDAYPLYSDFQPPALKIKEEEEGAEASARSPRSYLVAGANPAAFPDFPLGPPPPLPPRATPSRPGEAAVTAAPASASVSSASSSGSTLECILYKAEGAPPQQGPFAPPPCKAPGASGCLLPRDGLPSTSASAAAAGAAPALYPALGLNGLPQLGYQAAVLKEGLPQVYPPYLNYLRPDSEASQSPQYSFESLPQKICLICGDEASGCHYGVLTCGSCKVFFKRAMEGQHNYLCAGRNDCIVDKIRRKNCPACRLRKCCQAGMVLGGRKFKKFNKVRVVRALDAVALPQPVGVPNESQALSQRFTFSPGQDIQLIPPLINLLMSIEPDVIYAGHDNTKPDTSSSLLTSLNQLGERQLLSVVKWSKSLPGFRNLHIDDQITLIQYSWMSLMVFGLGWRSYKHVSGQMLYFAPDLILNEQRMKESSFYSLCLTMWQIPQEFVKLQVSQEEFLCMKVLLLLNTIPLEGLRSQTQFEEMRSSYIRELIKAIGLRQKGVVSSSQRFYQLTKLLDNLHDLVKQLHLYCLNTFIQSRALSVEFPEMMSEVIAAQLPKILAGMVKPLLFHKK

[3] = AUC in C57B6 mouse at 2 mg/kg, po administered as solution; type: ADME, organism-based; parameters: dose 2 mg/kg; conditions: in vivo
Cytochrome P450 3A4 = Cytochrome P450 3A4 (Homo sapiens, UniProt P08684); test: Inhibition of CYP3A4 (unknown origin) expressed in baculovirus infected insect supersomes preincubated for 15 mins followed by addition of NADPH regenerating system by fluorescence based analysis; type: ADME
[4] = AUC in C57B6 mouse at 2 mg/kg, po administered as suspension; type: ADME, organism-based; parameters: dose 2 mg/kg; conditions: in vivo
[5] = Plasma concentration in mouse at 3 mg/kg, po measured after 6 hrs; type: ADME, organism-based
[6] = Oral bioavailability in C57B6 mouse at 2 mg/kg administered as suspension; type: ADME, organism-based; conditions: in vivo
[7] = molecular target: T1, Nuclear receptor ROR-alpha; test: Agonist activity at human RORalpha (272 to 557 residues) co-expressed with Gal4-luciferase reporter in human Jurkat cells incubated for 18 hrs by Steady-Glo luciferase reporter based luminescence analysis; type: cell-based
Cytochrome P450 2C8 = molecular target: T4, Cytochrome P450 2C8 (Homo sapiens, UniProt P10632); test: Inhibition of CYP2C8 (unknown origin) expressed in baculovirus infected insect supersomes preincubated for 15 mins followed by addition of NADPH regenerating system and measured after 2 hrs by fluorescence based analysis; type: ADME
T4 sequence (P10632 whole entry): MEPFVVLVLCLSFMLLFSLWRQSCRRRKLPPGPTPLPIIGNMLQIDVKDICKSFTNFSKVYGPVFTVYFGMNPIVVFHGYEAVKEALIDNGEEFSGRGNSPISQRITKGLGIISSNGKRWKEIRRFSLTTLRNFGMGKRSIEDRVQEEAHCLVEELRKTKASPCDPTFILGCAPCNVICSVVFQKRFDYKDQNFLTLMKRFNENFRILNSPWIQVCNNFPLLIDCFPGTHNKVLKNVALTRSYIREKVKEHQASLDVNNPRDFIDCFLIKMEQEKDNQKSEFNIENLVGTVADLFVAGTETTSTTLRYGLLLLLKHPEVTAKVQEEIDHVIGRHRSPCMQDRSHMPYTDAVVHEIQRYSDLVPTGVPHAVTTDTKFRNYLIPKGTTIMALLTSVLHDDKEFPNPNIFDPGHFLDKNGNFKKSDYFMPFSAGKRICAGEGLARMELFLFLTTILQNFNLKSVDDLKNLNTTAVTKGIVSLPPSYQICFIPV

[8] = Half life in C57B6 mouse at 1 mg/kg, iv; type: ADME, organism-based; conditions: in vivo

Cytochrome P450 3A4, sequence (P08684 whole entry): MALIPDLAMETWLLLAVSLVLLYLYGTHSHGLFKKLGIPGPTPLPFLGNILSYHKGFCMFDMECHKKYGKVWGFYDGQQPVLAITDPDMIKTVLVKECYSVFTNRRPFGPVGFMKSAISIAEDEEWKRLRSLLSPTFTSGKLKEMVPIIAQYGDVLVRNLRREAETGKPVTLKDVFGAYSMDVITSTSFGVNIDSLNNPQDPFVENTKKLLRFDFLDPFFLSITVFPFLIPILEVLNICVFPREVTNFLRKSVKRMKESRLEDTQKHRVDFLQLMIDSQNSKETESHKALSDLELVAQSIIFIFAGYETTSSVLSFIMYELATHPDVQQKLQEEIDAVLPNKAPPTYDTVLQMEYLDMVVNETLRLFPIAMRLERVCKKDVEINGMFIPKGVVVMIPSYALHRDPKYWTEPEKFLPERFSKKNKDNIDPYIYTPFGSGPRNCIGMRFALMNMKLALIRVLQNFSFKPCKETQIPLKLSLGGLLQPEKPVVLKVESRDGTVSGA

- IC50 [1]: > 40 µM
- EC50 [2]: > 40 µM
- EC50 (Progesterone receptor): > 40 µM
- AUC [3]: 6.65 µM·h
- IC50 (Cytochrome P450 3A4): > 40 µM
- AUC [4]: 4.76 µM·h
- concentration at 6 h [5]: 37 nM
- bioavailability [6]: 26%
- EC50 [7]: > 40 µM
- IC50 (Cytochrome P450 2C8): 4.2 µM
- half-life [8]: 2.6 h
SMILES: O=C(O)c1cc(C(F)(F)F)c2cc(N3CCC4(C=C(c5c(-c6c(Cl)cncc6Cl)noc5C5CC5)C4)CC3)ccc2n1
